# In ChEMBL document CHEMBL1201862, “PubChem BioAssay data set” (2004):
#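 96-well plates; 48 h exposure; 5 concentrations. Endpoints by linear interpolation between flanking doses. Not reached: highest tested concentration assigned. Here, GI50 denotes the concentration required for 50% inhibition of growth.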 The source made the active and inactive calls. Rule as the data show it: active = GI50 up to about 1.1 µM and inactive = higher.
# How the values were obtained:
# Experiment in all cases: NCI anticancer screen, dose series, 48 h
# 786-0 = test system: 786-0
# A498 = test system: A498
# A549 = test system: A549
# ACHN = test system: ACHN
# BT-549 = test system: BT-549
# CAKI-1 = test system: CAKI-1
# CCRF-CEM = test system: CCRF-CEM
# COLO 205 = test system: COLO 205
# EKVX = test system: EKVX
# HCC 2998 = test system: HCC 2998
# HCT-116 = test system: HCT-116
# HCT-15 = test system: HCT-15
# HL-60 = test system: HL-60
# HOP-62 = test system: HOP-62
# HOP-92 = test system: HOP-92
# HT-29 = test system: HT-29
# Hs-578T = test system: Hs-578T
# IGROV-1 = test system: IGROV-1
# K562 = test system: K562
# KM12 = test system: KM12
# LOX IMVI = test system: LOX IMVI
# M14 = test system: M14
# MCF7 = test system: MCF7
# MDA-MB-231 = test system: MDA-MB-231
# MDA-MB-435 = test system: MDA-MB-435
# MDA-N = test system: MDA-N
# MOLT-4 = test system: MOLT-4
# Malme-3M = test system: Malme-3M
# NCI-H226 = test system: NCI-H226
# NCI-H23 = test system: NCI-H23
# NCI-H460 = test system: NCI-H460
# NCI-H522 = test system: NCI-H522
# NCI/ADR-RES = test system: NCI/ADR-RES
# OVCAR-3 = test system: OVCAR-3
# OVCAR-4 = test system: OVCAR-4
# OVCAR-5 = test system: OVCAR-5
# OVCAR-8 = test system: OVCAR-8
# PC-3 = test system: PC-3
# RPMI-8226 = test system: RPMI-8226
# SF-268 = test system: SF-268
# SF-295 = test system: SF-295
# SF-539 = test system: SF-539
# SK-MEL-28 = test system: SK-MEL-28
# SK-MEL-2 = test system: SK-MEL-2
# SK-MEL-5 = test system: SK-MEL-5
# SK-OV-3 = test system: SK-OV-3
# SN12C = test system: SN12C
# SNB-19 = test system: SNB-19
# SNB-75 = test system: SNB-75
# SR = test system: SR
# SW-620 = test system: SW-620
# T47D = test system: T47D
# TK-10 = test system: TK-10
# U-251 = test system: U-251
# UACC-257 = test system: UACC-257
# UACC-62 = test system: UACC-62
# UO-31 = test system: UO-31
structure (smiles),measurement,setting,value
CCOC(=O)CCC(NC(=O)c1ccc(Nc2nc3ccccc3nc2C(=O)OCC)cc1)C(=O)OCC (configuration not stated),GI50,786-0,1.85 µM (inactive)
same,GI50,A498,6.79 µM (inactive)
same,GI50,A549,3.78 µM (inactive)
same,GI50,ACHN,3.58 µM (inactive)
same,GI50,BT-549,7.66 µM (inactive)
same,GI50,CAKI-1,5.96 µM (inactive)
same,GI50,CCRF-CEM,> 100 µM (inactive)
same,GI50,COLO 205,> 33.7 µM (inactive)
same,GI50,EKVX,7.38 µM (inactive)
same,GI50,HCC 2998,> 76 µM (inactive)
same,GI50,HCT-116,2.95 µM (inactive)
same,GI50,HCT-15,18.1 µM
same,GI50,HL-60,> 100 µM (inactive)
same,GI50,HOP-62,3.89 µM (inactive)
same,GI50,HOP-92,3.91 µM (inactive)
same,GI50,HT-29,4.67 µM (inactive)
same,GI50,Hs-578T,3.1 µM (inactive)
same,GI50,IGROV-1,3.54 µM (inactive)
same,GI50,K562,> 100 µM (inactive)
same,GI50,KM12,3.78 µM (inactive)
same,GI50,LOX IMVI,5.58 µM (inactive)
same,GI50,M14,8.89 µM (inactive)
same,GI50,MCF7,11.3 µM (inactive)
same,GI50,MDA-MB-231,9.62 µM (inactive)
same,GI50,MDA-MB-435,3.91 µM (inactive)
same,GI50,MDA-N,3.89 µM (inactive)
same,GI50,MOLT-4,> 100 µM (inactive)
same,GI50,Malme-3M,6.67 µM (inactive)
same,GI50,NCI-H226,3.24 µM (inactive)
same,GI50,NCI-H23,7.52 µM (inactive)
same,GI50,NCI-H460,> 72.1 µM (inactive)
same,GI50,NCI-H522,3.3 µM (inactive)
same,GI50,NCI/ADR-RES,5.46 µM (inactive)
same,GI50,OVCAR-3,2.04 µM (inactive)
same,GI50,OVCAR-4,1.61 µM (inactive)
same,GI50,OVCAR-5,> 28.6 µM (inactive)
same,GI50,OVCAR-8,2.75 µM (inactive)
same,GI50,PC-3,16.9 µM (inactive)
same,GI50,RPMI-8226,6.76 µM (inactive)
same,GI50,SF-268,7.71 µM (inactive)
same,GI50,SF-295,7.71 µM (inactive)
same,GI50,SF-539,2.48 µM (inactive)
same,GI50,SK-MEL-28,8.91 µM (inactive)
same,GI50,SK-MEL-2,6.79 µM (inactive)
same,GI50,SK-MEL-5,27.8 µM (inactive)
same,GI50,SK-OV-3,2.47 µM (inactive)
same,GI50,SN12C,15.7 µM (inactive)
same,GI50,SNB-19,3.94 µM (inactive)
same,GI50,SNB-75,2.36 µM (inactive)
same,GI50,SR,> 39.3 µM (inactive)
same,GI50,SW-620,5.77 µM (inactive)
same,GI50,T47D,2.18 µM (inactive)
same,GI50,TK-10,2.92 µM (inactive)
same,GI50,U-251,3.12 µM (inactive)
same,GI50,UACC-257,18.9 µM (inactive)
same,GI50,UACC-62,3.2 µM (inactive)
same,GI50,UO-31,4.28 µM (inactive)
